Seiz., Ki and EC50 data for 16 compounds are collected here from patent publication US7683168B2, “Compositions of novel opioid compounds and method of use thereof” (priority 2005, dated 2010).

For data set [1], the system named is seizure-like convulsions in mice. Briefly: mouse seizure-like convulsions. It is filed as in vivo. On the procedure:
Mouse Seizure-Like Convulsions and antinociception: The central (CNS) effects of the compound were tested with central delta receptor mediated seizure-like convulsions and central mu opioid receptor mediated antinociceptive effects in mice. Male CD-1 mice (Charles River, Raleigh, N.C.) weighing 20-25 g were used to determine the seizure-like convulsion and antinociception activities for compounds.
They were then observed for seizure-like convulsions for one hour following the treatment. A seizure-like event was recorded if a mouse had uncontrollable clonic (or tonic/clonic) muscle movements that encompassed its entire body, usually followed by a brief cataleptic period. Catalepsy was determined by placing the animal's front paws on a horizontal bar held 2-3 inches from the cage floor. Cataleptic animals made no attempt to remove their paws.

In a further data set the target is T1, human delta receptor (Homo sapiens, UniProt P41143).
T1 construct: purchased Perkin Elmer, Boston, Mass; 6110549; host or cells: HEK-293 cells
Nature of the data set: radioligand binding, human delta receptor, HEK-293 cell membranes. The following applies: cell not marked (rat), species not given, read-out: δ.

For a further data set, the system named is mouse vas deferens. Nature of the data set: electrically stimulated mouse vas deferens (MVD) ED50. It is filed as cell-based. The following applies: ED50, inhibition of electrically induced contractions.
For another data set, the target named is T2, human mu opioid receptor (Homo sapiens, UniProt P35372).
T2 construct: purchased Perkin Elmer, Boston, Mass; 6110535; host or cells: CHO cells
Briefly: radioligand binding, human mu opioid receptor, CHO cell membranes. The following applies: species not given, read-out: μ.

Each structure is given as a SMILES string.

T2 sequence (P35372 whole entry): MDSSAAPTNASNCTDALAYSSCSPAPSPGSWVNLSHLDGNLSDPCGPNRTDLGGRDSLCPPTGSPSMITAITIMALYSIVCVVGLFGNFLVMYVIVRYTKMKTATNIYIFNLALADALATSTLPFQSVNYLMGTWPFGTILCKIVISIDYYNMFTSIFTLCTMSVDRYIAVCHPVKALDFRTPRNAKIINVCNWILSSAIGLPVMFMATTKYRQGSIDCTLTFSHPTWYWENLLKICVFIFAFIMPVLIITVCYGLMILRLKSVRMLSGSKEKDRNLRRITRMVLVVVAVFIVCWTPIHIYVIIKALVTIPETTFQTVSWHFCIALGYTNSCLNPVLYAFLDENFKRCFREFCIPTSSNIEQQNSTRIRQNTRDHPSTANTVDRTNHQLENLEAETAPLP
T1 sequence (P41143 whole entry): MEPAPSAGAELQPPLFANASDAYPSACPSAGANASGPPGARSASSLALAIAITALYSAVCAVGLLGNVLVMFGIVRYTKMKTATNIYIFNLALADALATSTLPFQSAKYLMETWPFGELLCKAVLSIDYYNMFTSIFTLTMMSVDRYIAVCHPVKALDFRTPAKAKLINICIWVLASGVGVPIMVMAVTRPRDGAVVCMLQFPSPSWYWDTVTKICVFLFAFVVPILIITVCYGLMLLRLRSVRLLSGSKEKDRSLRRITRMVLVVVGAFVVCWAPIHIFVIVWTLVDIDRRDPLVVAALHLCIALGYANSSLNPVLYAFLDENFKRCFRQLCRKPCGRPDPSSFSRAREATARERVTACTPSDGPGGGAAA

Regarding `CCOC(=O)N1CCN(C(=O)c2cccc([C@H](c3cccc(O)c3)N3C[C@@H](C)N(Cc4ccccc4)C[C@@H]3C)c2)CC1` [Example 62, 4-{3-[(R)-((2S,5R)-4-Benzyl-2,5-dimethyl-piperazin-1-yl)-(3-hydroxy-phenyl)-methyl]-benzoyl}-piperazine-1-carboxylic acid ethyl ester], in data set [1] (10 mg/kg IV), the Seiz. came to 70% 10 mg/kg IV. Also, the Ki was 2.2 nM at human delta receptor and 1.7 nM at human mu opioid receptor. Further, a half-maximal response with mouse vas deferens (EC50) required 6.78 nM.

`CCOC(=O)CCCN1CCN(C(=O)c2cccc([C@H](c3cccc(O)c3)N3C[C@@H](C)N(Cc4ccccc4)C[C@@H]3C)c2)CC1` [Example 79, 4-(4-{3-[(R)-((2S,5R)-4-Benzyl-2,5-dimethyl-piperazin-1-yl)-(3-hydroxy-phenyl)-methyl]-benzoyl}-piperazin-1-yl)-butyric acid ethyl ester] returned a Seiz. in data set [1] (10 mg/kg IV) of 80% 10 mg/kg IV. For the same compound, the Ki at human delta receptor was found to be 3.7 nM; on human mu opioid receptor it was 1.3 nM. In addition, a half-maximal response with mouse vas deferens (EC50) required 3.95 nM.

Compound `C=CCN1C[C@H](C)N([C@@H](c2cccc(O)c2)c2cccc(C(=O)N3CCC[C@H]3C(=O)OC)c2)C[C@H]1C` [Example 143, 1-{3-[(R)-((2S,5R)-4-Allyl-2,5-dimethyl-piperazin-1-yl)-(3-hydroxy-phenyl)-methyl]-benzoyl}-pyrrolidine-2-carboxylic acid (S)-methyl ester] registered a Seiz. in data set [1] (10 mg/kg IV) of 10% 10 mg/kg IV. Further, the Ki on human delta receptor was 1.5 nM; on human mu opioid receptor it was 0.5 nM. The half-maximal effective concentration (EC50) (commonly the concentration that produces a half-maximal response) in the data set on mouse vas deferens was 1.79 nM.

As for `C=CCN1C[C@H](C)N([C@@H](c2cccc(O)c2)c2cccc(C(=O)N3CCN(CCCCCC(=O)O)CC3)c2)C[C@H]1C` [Example 94, 6-(4-{3-[(R)-((2S,5R)-4-Allyl-2,5-dimethyl-piperazin-1-yl)-(3-hydroxy-phenyl)-methyl]-benzoyl}-piperazin-1-yl)-hexanoic acid], the Seiz. in data set [1] (10 mg/kg IV) turned out to be 0% 10 mg/kg IV. For the same compound, the Ki at human delta receptor was 2.5 nM; on human mu opioid receptor, 64.3 nM. For the same compound, the EC50 in the data set with mouse vas deferens amounted to 6.07 nM.

In turn, `C[C@@H]1CN([C@@H](c2cccc(O)c2)c2cccc(C(=O)N3CCN(CCCCCCC(=O)O)CC3)c2)[C@@H](C)CN1Cc1ccccc1` [Example 111, 7-(4-{3-[(R)-((2S,5R)-4-Benzyl-2,5-dimethyl-piperazin-1-yl)-(3-hydroxy-phenyl)-methyl]-benzoyl}-piperazin-1-yl)-heptanoic acid] came in with a Seiz. in data set [1] (10 mg/kg IV) of 0% 10 mg/kg IV. Also, the figures for the Ki on human delta receptor and on human mu opioid receptor were 0.77 nM and 8.7 nM, respectively. In the data set on mouse vas deferens, this compound yielded a concentration for a half-maximal effect (EC50) of 3.82 nM.

`CCOC(=O)CCCCN1CCCN(C(=O)c2cccc(C(c3cccc(O)c3)N3C[C@@H](C)N(Cc4ccccc4)C[C@@H]3C)c2)CC1` (stereo partly shown) had a Seiz. in data set [1] (10 mg/kg IV) of 25% 10 mg/kg IV. The figures for the Ki on human delta receptor and at human mu opioid receptor were 2.6 nM and 6.3 nM, respectively. Besides, in the data set with mouse vas deferens, it took 11.1 nM to reach a half-maximal effect (EC50).

Take `CCOC(=O)CN1CCCN(C(=O)c2cccc(C(c3cccc(O)c3)N3C[C@@H](C)N(CC4CC4)C[C@@H]3C)c2)CC1` (stereo partly shown): the Seiz. in data set [1] (20 mg/kg IV) was found to be 0% 20 mg/kg IV. Also, the Ki worked out at 1.9 nM at human delta receptor and 3.9 nM on human mu opioid receptor. Moreover, a half-maximal effect in the data set on mouse vas deferens (EC50) was put at 38.9 nM.

As for `C[C@@H]1CN(C(c2cccc(O)c2)c2cccc(C(=O)N3CCCN(CCCCC(=O)O)CC3)c2)[C@@H](C)CN1Cc1ccccc1` (stereo partly shown), in data set [1] (10 mg/kg IV), the Seiz. came to 0% 10 mg/kg IV. For the same compound, the Ki is 20.4 nM at human delta receptor and 23.5 nM on human mu opioid receptor. In the data set on mouse vas deferens, this compound came in with an EC50 of 3.28 nM.

Regarding `CCOC(=O)CCCCN1CCCN(C(=O)c2cccc(C(c3cccc(O)c3)N3C[C@@H](C)N(Cc4cccc(F)c4)C[C@@H]3C)c2)CC1` (stereo partly shown), the Seiz. in data set [1] (10 mg/kg IV) was determined as 0% 10 mg/kg IV. In addition, the Ki at human delta receptor amounted to 6.1 nM; on human mu opioid receptor it was 15.7 nM. The response with mouse vas deferens was half-maximal at 61.5 nM (EC50).

As for `C=CCN1C[C@H](C)N([C@@H](c2cccc(O)c2)c2cccc(C(=O)N3CCNCC3)c2)C[C@H]1C` [Example 58, {3-[(R)-((2S,5R)-4-Allyl-2,5-dimethyl-piperazin-1-yl)-(3-hydroxy-phenyl)-methyl]-phenyl}-piperazin-1-yl-methanone], the Seiz. in data set [1] (10 mg/kg IV) amounted to 0% 10 mg/kg IV. For the same compound, the Ki is 5.1 nM at human delta receptor and 1.1 nM at human mu opioid receptor. The compound also showed an EC50 with mouse vas deferens of 12.1 nM.

On to `C=CCN1C[C@H](C)N([C@@H](c2cccc(O)c2)c2cccc(C(=O)N3CCN(CCC(=O)OCC)CC3)c2)C[C@H]1C` [Example 72, 3-(4-{3-[(R)-((2S,5R)-4-Allyl-2,5-dimethyl-piperazin-1-yl)-(3-hydroxy-phenyl)-methyl]-benzoyl}-piperazin-1-yl)-propionic acid ethyl ester], for which the Seiz. in data set [1] (10 mg/kg IV) worked out at 20% 10 mg/kg IV. Moreover, the values for the Ki at human delta receptor and at human mu opioid receptor were 0.61 nM and 2.4 nM, respectively. This compound gave an EC50 with mouse vas deferens of 8.03 nM.

In the case of `C=CCN1C[C@H](C)N([C@@H](c2cccc(O)c2)c2cccc(C(=O)N3CCN(CCCCC(=O)OCC)CC3)c2)C[C@H]1C` [Example 83, 5-(4-{3-[(R)-((2S,5R)-4-Allyl-2,5-dimethyl-piperazin-1-yl)-(3-hydroxy-phenyl)-methyl]-benzoyl}-piperazin-1-yl)-pentanoic acid ethyl ester], the Seiz. in data set [1] (10 mg/kg IV) is 30% 10 mg/kg IV. The figures for the Ki on human delta receptor and at human mu opioid receptor were 10.7 nM and 8.9 nM, respectively. The compound also showed an EC50 in the data set with mouse vas deferens of 11.8 nM.

In the case of `C=CCN1C[C@H](C)N([C@@H](c2cccc(O)c2)c2cccc(C(=O)N3CCN(CCCC(=O)OCC)CC3)c2)C[C@H]1C` [Example 74, (4-{3-[(R)-((2S,5R)-4-Allyl-2,5-dimethyl-piperazin-1-yl)-(3-hydroxy-phenyl)-methyl]-benzoyl}-piperazin-1-yl)-butyric acid ethyl ester], in data set [1] (10 mg/kg IV), the Seiz. amounted to 10% 10 mg/kg IV. Also, the values for the Ki on human delta receptor and on human mu opioid receptor were 123 nM and 1.95 nM, respectively. Also, the concentration giving a half-maximal response (EC50) with mouse vas deferens was determined as 23.3 nM.

In turn, `CCOC(=O)CCCCN1CCN(C(=O)c2cccc([C@H](c3cccc(O)c3)N3C[C@@H](C)N(Cc4ccccc4)C[C@@H]3C)c2)CC1` [Example 86, 5-(4-{3-[(R)-[(2S,5R)-4-Benzyl-2,5-dimethyl-piperazin-1-yl]-(3-hydroxy-phenyl)-methyl]-benzoyl}-piperazin-1-yl)-pentanoic acid ethyl ester] yielded a Seiz. in data set [1] (10 mg/kg IV) of 60% 10 mg/kg IV. The Ki turned out to be 3.1 nM on human delta receptor and 9.1 nM at human mu opioid receptor. This compound also came in with an EC50 with mouse vas deferens of 12.6 nM.

For the compound `C=CCN1C[C@H](C)N([C@@H](c2cccc(O)c2)c2cccc(C(=O)N3CCC(NCc4ccc(C(=O)O)cc4)CC3)c2)C[C@H]1C` [Example 140, 4-[(1-{3-[(R)-((2S,5R)-4-Allyl-2,5-dimethyl-piperazin-1-yl)-(3-hydroxy-phenyl)-methyl]-benzoyl}-piperidin-4-ylamino)-methyl]-benzoic acid], the Seiz. in data set [1] (10 mg/kg IV) is 0% 10 mg/kg IV. The values for the Ki on human delta receptor and at human mu opioid receptor were 1.2 nM and 4.6 nM, respectively. This compound also had an EC50 in the data set with mouse vas deferens of 6.74 nM.

In turn, `C=CCN1C[C@H](C)N([C@@H](c2cccc(O)c2)c2cccc(C(=O)N3CCN(C(=O)OCC)CC3)c2)C[C@H]1C` [Example 57, 4-{3-[(R)-((2S,5R)-4-Allyl-2,5-dimethylpiperazin-1-yl)(3-hydroxy-phenyl)methyl]benzoyl}piperazine-1-carboxylic acid ethyl ester] registered a Seiz. in data set [1] (10 mg/kg IV) of 40% 10 mg/kg IV. The Ki on human delta receptor turned out to be 0.81 nM; on human mu opioid receptor it was 0.8 nM. Besides, in the data set with mouse vas deferens, the EC50 was determined as 5.15 nM.
